Reference: patent US20220031800A1, “PEPTIDES FOR TREATING NON-EXUDATIVE MACULAR DEGENERATION AND OTHER DISORDERS OF THE EYE” (Allegro Pharmaceuticals, LLC, priority 2019, published 2022)
Square brackets hold non-standard residues; d marks the D form. Peptide text beside a SMILES is read from it. Cya = N[C@@H](CS(=O)(=O)O)C(=O)O

Test system: study eye of subjects with intermediate non-exudative AMD
Test: SD-OCT Analysis 2 (thickness, volume, map coverage of retinal layers)
Format: in vivo, human
Details: change from baseline at Week 32
Method: Numerous study assessments were conducted at various time points throughout the study. Included among these study assessments were; refractive eye examinations, determinations of BCVA AND low-luminance BCVA, Lanthony D-15 color vision test, measurement of intraocular pressure (IOP), Indirect ophthalmoscopy/dilated fundus examinations and spectral-domain optical coherence tomography (SD-OCT). Also, blood and saliva samples were obtained from each subject for genetic analysis. The above-listed study assessments were performed at the time points indicated in Table 1, below: The OCT scans were analyzed by two (2) unrelated experts. In Analysis #2, the OCT images of study eyes were analyzed to determine mean thickness and mean volume of numerous retinal subfields and layer segments at baseline and at Week 12 for sham eyes and at baseline and at Week 32 for risuteganib eyes, to document any significant differences between groups of eyes based on baseline measurements or changes from baseline in those measurements. In addition to the quantitative analysis of OCT images, OCT Analysis #2 included qualitative assessment of the OCT images to identify GA, pseudodrusen, and disruption of the ELM and EZ layers. FIGS. 9A, 9B and 9C illustrate the level of varying pathology within the ELM based on quantitative mapping that were also assessed, with FIG. 9A (left) showing no ELM disruption, FIG. 9B (center) showing segmental disruption, and FIG. 9C showing diffuse disruption.

[1] = risuteganib nonresponder eyes, n = 12

C[C@@H](O)[C@H](NC(=O)[C@H](CS(=O)(=O)O)NC(=O)CNC(=O)[C@H](CCCNC(=N)N)NC(=O)CN)C(=O)N1CCC[C@H]1C(=O)O [risuteganib, Glycyl-L-arginylglycyl-3-sulfo-L-alanyl-L-threonyl-L-proline] (H-GRG[Cya]TP-OH)
Change in mean thickness, ONL-RPE foveal center (Risuteganib Responder eyes): 0.650 μm
Change in mean thickness, ONL-RPE mid subfield (Risuteganib Responder eyes): −6.561 μm
Change in mean thickness, RPE-BM central subfield (Risuteganib Responder eyes): −8.238 μm
Change in mean thickness, RPE-BM foveal center (Risuteganib Responder eyes): −12.512 μm
Change in mean thickness, RPE-BM mid subfield (Risuteganib Responder eyes): −5.287 μm
Change in mean thickness, Total retinal central subfield (Risuteganib Responder eyes): −0.691 μm
Change in mean thickness, Total retinal foveal center (Risuteganib Responder eyes): 0.804 μm
Change in mean thickness, Total retinal mid subfield (Risuteganib Responder eyes): −1.049 μm
Change in volume, ELM-EZ central subfield (Risuteganib Responder eyes): −0.002 mm^3
Change in volume, ELM-EZ mid subfield (Risuteganib Responder eyes): −0.003 mm^3
Change in volume, ELM-RPE (Risuteganib Responder eyes): 0.086 mm^3
Change in volume, ELM-RPE central subfield (Risuteganib Responder eyes): −0.002 mm^3
Change in volume, ELM-RPE mid subfield (Risuteganib Responder eyes): −0.007 mm^3
Change in volume, EZ-RPE (Risuteganib Responder eyes): −0.059 mm^3
Change in volume, EZ-RPE central subfield (Risuteganib Responder eyes): −0.001 mm^3
Change in volume, EZ-RPE mid subfield (Risuteganib Responder eyes): −0.004 mm^3
Change in volume, ONL-EZ central subfield (Risuteganib Responder eyes): −0.004 mm^3
Change in volume, ONL-EZ mid subfield (Risuteganib Responder eyes): −0.017 mm^3
Change in volume, ONL-RPE (Risuteganib Responder eyes): 0.009 mm^3
Change in volume, ONL-RPE central subfield (Risuteganib Responder eyes): −0.005 mm^3
Change in volume, ONL-RPE mid subfield (Risuteganib Responder eyes): −0.021 mm^3
Change in volume, RPE-BM (Risuteganib Responder eyes): −0.049 mm^3
Change in volume, RPE-BM central subfield (Risuteganib Responder eyes): −0.007 mm^3
Change in volume, RPE-BM mid subfield (Risuteganib Responder eyes): −0.017 mm^3
Change in volume, Total retinal (Risuteganib Responder eyes): −0.188 mm^3
Change in volume, Total retinal central subfield (Risuteganib Responder eyes): 0.000 mm^3
Change in volume, Total retinal mid subfield (Risuteganib Responder eyes): −0.004 mm^3
Map coverage, 0 μm EZ (Risuteganib Responder eyes): 3.679%
Map coverage, 0 μm RPE-BM (Risuteganib Responder eyes): 1.099%
Map coverage, 10 μm EZ (Risuteganib Responder eyes): 3.699%
Map coverage, 20 μm EZ (Risuteganib Responder eyes): 3.574%
Map coverage, 50 μm RPE-BM (Risuteganib Responder eyes): −3.49%
Map coverage, 150 μm RPE-BM (Risuteganib Responder eyes): 3.335%
Map coverage, 250 μm RPE-BM (Risuteganib Responder eyes): −0.011%
Change in mean thickness, ELM-EZ central subfield (risuteganib arm, n = 24): −1.827 μm
Change in mean thickness, ELM-EZ mid subfield (risuteganib arm, n = 24): −0.106 μm
Change in mean thickness, ELM-RPE central subfield (risuteganib arm, n = 24): −2.912 μm
Change in mean thickness, ELM-RPE foveal center (risuteganib arm, n = 24): −6.094 μm
Change in mean thickness, ELM-RPE mid subfield (risuteganib arm, n = 24): −1.593 μm
Change in mean thickness, EZ-RPE central subfield (risuteganib arm, n = 24): −1.085 μm
Change in mean thickness, EZ-RPE foveal center (risuteganib arm, n = 24): −0.407 μm
Change in mean thickness, EZ-RPE mid subfield (risuteganib arm, n = 24): −1.486 μm
Change in mean thickness, Inner retina central subfield (risuteganib arm, n = 24): 3.880 μm
Change in mean thickness, Inner retina mid subfield (risuteganib arm, n = 24): 3.893 μm
Change in mean thickness, ONL-EZ central subfield (risuteganib arm, n = 24): −6.131 μm
Change in mean thickness, ONL-EZ mid subfield (risuteganib arm, n = 24): −4.954 μm
Change in mean thickness, ONL-RPE central subfield (risuteganib arm, n = 24): −7.216 μm
Change in mean thickness, ONL-RPE foveal center (risuteganib arm, n = 24): −3.488 μm
Change in mean thickness, ONL-RPE mid subfield (risuteganib arm, n = 24): −6.441 μm
Change in mean thickness, RPE-BM central subfield (risuteganib arm, n = 24): −4.178 μm
Change in mean thickness, RPE-BM foveal center (risuteganib arm, n = 24): −8.126 μm
Change in mean thickness, RPE-BM mid subfield (risuteganib arm, n = 24): −2.086 μm
Change in mean thickness, Total retinal central subfield (risuteganib arm, n = 24): −3.336 μm
Change in mean thickness, Total retinal foveal center (risuteganib arm, n = 24): −4.154 μm
Change in mean thickness, Total retinal mid subfield (risuteganib arm, n = 24): −2.548 μm
Change in volume, ELM-EZ central subfield (risuteganib arm, n = 24): −0.001 mm^3
Change in volume, ELM-EZ mid subfield (risuteganib arm, n = 24): 0.000 mm^3
Change in volume, ELM-RPE (risuteganib arm, n = 24): 0.048 mm^3
Change in volume, ELM-RPE central subfield (risuteganib arm, n = 24): −0.002 mm^3
Change in volume, ELM-RPE mid subfield (risuteganib arm, n = 24): −0.005 mm^3
Change in volume, EZ-RPE (risuteganib arm, n = 24): −0.027 mm^3
Change in volume, EZ-RPE central subfield (risuteganib arm, n = 24): −0.001 mm^3
Change in volume, EZ-RPE mid subfield (risuteganib arm, n = 24): −0.005 mm^3
Change in volume, ONL-EZ central subfield (risuteganib arm, n = 24): −0.005 mm^3
Change in volume, ONL-EZ mid subfield (risuteganib arm, n = 24): −0.016 mm^3
Change in volume, ONL-RPE (risuteganib arm, n = 24): −0.009 mm^3
Change in volume, ONL-RPE central subfield (risuteganib arm, n = 24): −0.005 mm^3
Change in volume, ONL-RPE mid subfield (risuteganib arm, n = 24): −0.020 mm^3
Change in volume, RPE-BM (risuteganib arm, n = 24): −0.006 mm^3
Change in volume, RPE-BM central subfield (risuteganib arm, n = 24): −0.003 mm^3
Change in volume, RPE-BM mid subfield (risuteganib arm, n = 24): −0.007 mm^3
Change in volume, Total retinal (risuteganib arm, n = 24): −0.048 mm^3
Change in volume, Total retinal central subfield (risuteganib arm, n = 24): −0.002 mm^3
Change in volume, Total retinal mid subfield (risuteganib arm, n = 24): −0.008 mm^3
Map coverage, 0 μm EZ (risuteganib arm, n = 24): 2.574%
Map coverage, 0 μm RPE-BM (risuteganib arm, n = 24): 1.282%
Map coverage, 10 μm EZ (risuteganib arm, n = 24): 2.515%
Map coverage, 20 μm EZ (risuteganib arm, n = 24): 2.431%
Map coverage, 50 μm RPE-BM (risuteganib arm, n = 24): −2.644%
Map coverage, 150 μm RPE-BM (risuteganib arm, n = 24): 2.739%
Map coverage, 250 μm RPE-BM (risuteganib arm, n = 24): −0.006%
Change in mean thickness, ELM-EZ central subfield [1]: −1.332 μm
Change in mean thickness, ELM-EZ mid subfield [1]: 0.754 μm
Change in mean thickness, ELM-RPE central subfield [1]: −2.722 μm
Change in mean thickness, ELM-RPE foveal center [1]: −12.189 μm
Change in mean thickness, ELM-RPE mid subfield [1]: −1.044 μm
Change in mean thickness, EZ-RPE central subfield [1]: −1.390 μm
Change in mean thickness, EZ-RPE foveal center [1]: −1.789 μm
Change in mean thickness, EZ-RPE mid subfield [1]: −1.798 μm
Change in mean thickness, Inner retina central subfield [1]: 1.896 μm
